Entries after “also recorded” stand apart in the source; their conditions may differ. Starred links: 1 amine or outer side, 2 acyl side, 3 side chain; linkers in the order of their positions; H or OH if unused. Non-standard residues stand in square brackets, D forms with d. Residues, ends and D or L forms follow the SMILES beside them. Groups on a side chain read outwards from the residue. *: point of attachment. C20 diacid = O=C(O)CCCCCCCCCCCCCCCCCCC(=O)*; γGlu = O=C(O)[C@H](CCC(=O)[*:2])N[*:1]; NMeI = CC[C@H](C)[C@H](NC)C(=O)O; AEEA = NCCOCCOCC(=O)O; Aib = CC(C)(N)C(=O)O
Legend:
[1] = Size exclusion chromatography for high molecular weight products (HMWP); assay type: physicochemical; details: for HMWP formation (SEC analysis) T14-T0 (%): 14 days; for HMWP formation (SEC analysis) T28-T0 (%): 28 days
Protocol: Dissolved samples were incubated for at least 2 h at room temperature on a rocking table. The main peak purity at time zero (T0) was determined using reversed phase chromatography. The samples were incubated at 40°C for 14 days (T14) and 28 days (T28). The samples were analyzed with reversed phase chromatography and size exclusion chromatography.
Size exclusion chromatography (SEC) was used as an analysis for the formation of high molecular weight products (HMWP, covalent dimers, trimers etc.,). SEC analyses was performed on Thermo Dionex Ultimate UHPLC system with UV detection at 215 nm) equipped with a SEC column (Waters BEH 125Å, 1.7 µm, 300mm x 4.6). Analysis was performed by isocratic elution using 60% buffer B (0.1% TFA in 5:95 H2O: acetonitrile) in buffer A (0.1% TFA in 95:5 H2O: acetonitrile) at a column temperature of 60° C over 20 min. Flowrate was 0.3 mL/min.
Chromatograms were integrated as HMWP (all peaks eluting before the main peak), main peak (assuming this is monomeric peptide) and if relevant LMWP (low molecular weight products, all peaks eluting after main peak). The amount of HMWP was reported as area relative to total area in percent.

[2] = Body mass and body fat content in mouse model of diet-induced obesity (DIO); assay type: in vivo; details: DIO mice; for Blood HbA1c / M. Gastrocnemius / M. Soleus / Body weight at termination / Fat mass change from baseline / Lean mass change from baseline / Relative body weight change at termination: Table 17 study; for Body weight at termination / Fat mass change from baseline / Lean mass change from baseline / Relative body weight change at termination: ± SEM
Protocol: SEQ ID NO: 3, SEQ ID NO: 6, SEQ ID NO: 238, SEQ ID NO: 16 and SEQ ID NO: 215 were assessed for their ability to reduce body mass and body fat content in a mouse model of diet-induced obesity (DIO).
Male C57BL/6JRj mice were obtained from JanVier (JanVier Labs, France) at 5 weeks of age. The animals were group-housed during obesity induction and then single housed 2 weeks prior to study start. They were housed under a 12/12 h dark-light cycle, light off at 3 PM. Room temperature was controlled to 22°C ± 1°C, with 60 % ± 20% humidity. For 22-23 weeks prior to treatment start and throughout the study, the animals had ad libitum access to high-fat diet (60% kcal fat, D12492, Research Diets) and tap water.
The animals were randomized according to lean mass (EchoMRI) and body weight. Animals were dosed subcutaneously […] for 30-32 days. In study 1, the animals were dosed with vehicle or SEQ ID NO: 3 (10, 30, 60 or 100 nmol/kg). In study 2, the animals were dosed with vehicle or SEQ ID NO: 6 (10 or 30 nmol/kg), SEQ ID NO: 238 (10 or 30 nmol/kg), SEQ ID NO: 16 (10 or 30 nmol/kg), SEQ ID NO: 215 (10 or 30 nmol/kg) or SEQ ID NO: 3 (30 nmol/kg).
Body weight and food intake were recorded daily until day 28 and body composition evaluated on day 26 using EchoMRI. At termination, blood for HbA1c analyses were collected and M. gastrocnemius and M. soleus were weighed.
Statistical significance was evaluated using One-way analysis of variance with Dunnett's multiple comparison test. P < 0.05 was considered statistically significant.

[3] = biological target: T1, hCRHR2a (Homo sapiens, UniProt Q13324); test: cAMP potency, transiently transfected CHO-K1 cells, hCRHR2a; assay type: cell-based; details: transiently transfected CHO-K1, average n=3; read-out: Transient cell system EC50 (nM) hCRHR 2a
T1 construct: DYK (FLAG); host or cells: CHO-K1, transiently transfected
T1 sequence (Q13324 1-411): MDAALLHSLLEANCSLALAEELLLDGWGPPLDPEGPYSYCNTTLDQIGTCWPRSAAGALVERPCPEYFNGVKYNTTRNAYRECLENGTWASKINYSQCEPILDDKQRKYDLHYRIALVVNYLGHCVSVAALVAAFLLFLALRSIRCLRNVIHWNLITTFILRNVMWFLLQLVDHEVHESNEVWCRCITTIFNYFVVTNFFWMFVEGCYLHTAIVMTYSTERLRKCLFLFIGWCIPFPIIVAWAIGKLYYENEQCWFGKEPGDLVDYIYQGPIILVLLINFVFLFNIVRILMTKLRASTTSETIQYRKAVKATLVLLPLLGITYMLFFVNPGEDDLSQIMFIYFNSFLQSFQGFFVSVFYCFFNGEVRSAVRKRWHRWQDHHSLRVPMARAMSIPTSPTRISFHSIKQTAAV

[4] = biological target: T2, hCRHR2b (Homo sapiens, UniProt Q13324); test: cAMP potency, transiently transfected CHO-K1 cells, hCRHR2b; assay type: cell-based; details: transiently transfected CHO-K1, average n=3; read-out: Transient cell system EC50 (nM) hCRHR 2b
T2 construct: DYK (FLAG); host or cells: CHO-K1, transiently transfected
T2 sequence (Q13324 1-438 isoform Q13324-2): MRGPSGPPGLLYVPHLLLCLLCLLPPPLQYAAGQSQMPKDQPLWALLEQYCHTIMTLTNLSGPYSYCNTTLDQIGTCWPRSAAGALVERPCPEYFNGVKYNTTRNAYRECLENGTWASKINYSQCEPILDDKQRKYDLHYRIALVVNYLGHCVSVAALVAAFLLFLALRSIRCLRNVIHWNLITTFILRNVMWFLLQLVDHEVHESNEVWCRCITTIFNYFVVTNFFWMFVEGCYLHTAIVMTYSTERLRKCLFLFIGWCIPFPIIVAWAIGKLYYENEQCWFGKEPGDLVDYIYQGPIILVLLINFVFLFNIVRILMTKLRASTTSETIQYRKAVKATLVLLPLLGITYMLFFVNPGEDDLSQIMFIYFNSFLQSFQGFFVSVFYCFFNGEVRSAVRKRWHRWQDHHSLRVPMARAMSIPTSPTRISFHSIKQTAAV

[5] = biological target: T3, rCRHR2 (Rattus norvegicus, UniProt P47866); test: cAMP potency, transiently transfected CHO-K1 cells, rCRHR2; assay type: cell-based; details: transiently transfected CHO-K1, average n=3; read-out: Transient cell system EC50 (nM) rCRHR 2
T3 construct: DYK (FLAG); host or cells: CHO-K1, transiently transfected
Protocol: (§1) Selected peptides were tested for potency on different species (mouse, rat, porcine) using transiently transfected CHO-K1 cells using the general procedure.

[6] = system: pCRHR2; test: cAMP potency, transiently transfected CHO-K1 cells, pCRHR2; assay type: cell-based, pig; details: transiently transfected CHO-K1, average n=3; read-out: Transient cell system EC50 (nM) pCR HR2
Protocol: as §1

T3 sequence (P47866 whole entry): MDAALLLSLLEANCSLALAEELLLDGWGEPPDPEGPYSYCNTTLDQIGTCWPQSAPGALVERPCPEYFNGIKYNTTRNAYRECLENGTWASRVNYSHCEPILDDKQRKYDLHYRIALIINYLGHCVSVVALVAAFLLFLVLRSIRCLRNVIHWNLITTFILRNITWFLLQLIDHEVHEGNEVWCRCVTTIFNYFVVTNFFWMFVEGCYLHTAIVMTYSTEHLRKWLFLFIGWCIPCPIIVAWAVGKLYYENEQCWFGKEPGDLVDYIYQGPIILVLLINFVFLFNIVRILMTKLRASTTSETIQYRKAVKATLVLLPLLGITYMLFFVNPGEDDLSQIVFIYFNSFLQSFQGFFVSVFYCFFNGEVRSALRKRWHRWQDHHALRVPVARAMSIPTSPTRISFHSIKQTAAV

**Q.** Which results are given for `CC[C@H](C)[C@H](NC)C(=O)N[C@H](C(=O)N[C@@H](CC(C)C)C(=O)N[C@@H](CO)C(=O)N[C@@H](CC(C)C)C(=O)N[C@@H](CC(=O)O)C(=O)N[C@H](C(=O)N1CCC[C@H]1C(=O)N[C@H](C(=O)NCC(=O)N[C@@H](CC(C)C)C(=O)N[C@@H](CC(C)C)C(=O)N[C@@H](CCC(N)=O)C(=O)N[C@H](C(=O)N[C@@H](CC(C)C)C(=O)N[C@@H](CC(C)C)C(=O)N[C@@H](CCC(=O)O)C(=O)N[C@@H](CCC(N)=O)C(=O)N[C@@H](C)C(=O)N[C@@H](CCCNC(=N)N)C(=O)N[C@@H](C)C(=O)N[C@@H](CCCNC(=N)N)C(=O)N[C@@H](C)C(=O)N[C@@H](C)C(=O)N[C@@H](CCCNC(=N)N)C(=O)N[C@@H](CCC(=O)O)C(=O)N[C@@H](CCC(N)=O)C(=O)N[C@@H](C)C(=O)N[C@@H](CCCCNC(=O)COCCOCCNC(=O)COCCOCCNC(=O)CC[C@H](NC(=O)CC[C@H](NC(=O)CCCCCCCCCCCCCCCCCCC(=O)O)C(=O)O)C(=O)O)C(=O)N[C@H](C(=O)N[C@@H](CC(N)=O)C(=O)NC(C)(C)C(=O)N[C@@H](CCC(=O)O)C(=O)N[C@H](C(=O)N[C@@H](CC(C)C)C(=O)N[C@@H](C)C(=O)N[C@@H](CCC(=O)O)C(=O)N[C@H](C(N)=O)C(C)C)[C@@H](C)CC)[C@@H](C)O)[C@@H](C)CC)[C@@H](C)CC)C(C)C)C(C)C` [SEQ ID NO: 16] (H-[NMeI]VLSLDVPIGLLQILLEQARARAAREQAK([AEEA-AEEA-γGlu-γGlu-C20 diacid])TN[Aib]EILAEV-NH2)?
**A.** HMWP formation (SEC analysis) T14-T0 (%) ([1]; pH 7.0, 40°C): -0.3%; HMWP formation (SEC analysis) T28-T0 (%) ([1]; pH 7.0, 40°C): -0.3%; HMWP formation (SEC analysis) T14-T0 (%) ([1]; pH 7.5, 40°C): 0.0%; HMWP formation (SEC analysis) T28-T0 (%) ([1]; pH 7.5, 40°C): 0.0%; HMWP formation (SEC analysis) T14-T0 (%) ([1]; pH 8.0, 40°C): -0.2%; HMWP formation (SEC analysis) T28-T0 (%) ([1]; pH 8.0, 40°C): -0.3%; relative body weight ([2]; 28 days, compared to vehicle): reduce body weight; also recorded: prolonged dose-dependent reduction; Blood HbA1c ([2]; 10 nmol/kg): 4.4 ± 0.1%; M. Gastrocnemius ([2]; 10 nmol/kg): 0.19 ± 0.003 g; M. Soleus ([2]; 10 nmol/kg): 0.013 ± 0.0004 g; Body weight at termination ([2]; 10 nmol/kg): 44 ± 1.1 g; Fat mass change from baseline ([2]; 10 nmol/kg): -5.6 ± 0.5 g; Lean mass change from baseline ([2]; 10 nmol/kg): 0.6 ± 0.3 g; Relative body weight change at termination ([2]; 10 nmol/kg): 91.1 ± 1.2 %; Blood HbA1c ([2]; 30 nmol/kg): 4.1 ± 0.1 %; M. Gastrocnemius ([2]; 30 nmol/kg): 0.19 ± 0.002 g; M. Soleus ([2]; 30 nmol/kg): 0.013 ± 0.0009 g; Body weight at termination ([2]; 30 nmol/kg): 38.3 ± 0.9 g; Fat mass change from baseline ([2]; 30 nmol/kg): -10.5 ± 0.6 g; Lean mass change from baseline ([2]; 30 nmol/kg): -0.6 ± 0.3 g; Relative body weight change at termination ([2]; 30 nmol/kg): 79.9 ± 1.4 %; EC50 [3]: 0.025 nM; EC50 [4]: 0.012 nM; EC50 [5]: 0.19 nM; EC50 [6]: 0.028 nM

Source: patent publication EP4810052A2, “HCRHR2 SELECTIVE POLYPEPTIDES” (Gubra A/S, priority 2023, dated 2026)
